In patent publication US20230295157A1, “3-(1H-IMIDAZOL-2-YL)-2,3,8,8A-TETRAHYDROINDOLIZIN-5(1H)-ONE DERIVATIVES USEFUL AS FACTOR XIA INHIBITORS” (JANSSEN PHARMACEUTICA NV, priority 2020, published 2023):
Where two headings read alike, the source gives them in different places.

How the values were obtained:
[1] = molecular target: Factor XIa (Homo sapiens (Human), UniProt P03951); test: Factor XIa inhibition assay (FLINT) utilizing a fluorophore-quencher pair peptide substrate; type: biochemical; details: 30 min preincubation, kinetic reads over 30 min, read-out: FXIa Kin Inh IC50
Chain of Factor XIa (P03951 388-625): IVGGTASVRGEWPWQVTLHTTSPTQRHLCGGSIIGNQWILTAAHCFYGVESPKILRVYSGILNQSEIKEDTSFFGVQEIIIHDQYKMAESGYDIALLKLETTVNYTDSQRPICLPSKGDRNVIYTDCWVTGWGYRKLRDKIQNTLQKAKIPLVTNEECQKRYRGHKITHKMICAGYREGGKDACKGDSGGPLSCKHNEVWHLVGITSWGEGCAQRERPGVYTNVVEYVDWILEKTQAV
Chain of Factor XIa (P03951 19-387 partner): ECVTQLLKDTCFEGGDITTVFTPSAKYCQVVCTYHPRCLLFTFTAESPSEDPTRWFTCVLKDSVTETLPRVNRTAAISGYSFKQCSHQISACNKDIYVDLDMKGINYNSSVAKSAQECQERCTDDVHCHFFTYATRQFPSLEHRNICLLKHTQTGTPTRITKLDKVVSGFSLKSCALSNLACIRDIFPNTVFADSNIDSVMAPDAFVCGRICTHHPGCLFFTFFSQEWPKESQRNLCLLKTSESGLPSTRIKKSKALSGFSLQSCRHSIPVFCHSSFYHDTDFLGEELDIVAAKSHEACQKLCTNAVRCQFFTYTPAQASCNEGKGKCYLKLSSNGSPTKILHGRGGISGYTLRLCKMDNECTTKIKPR
In short: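 FXIa ([…]) preincubated 30 min with compound (11-point 3-fold dilution, top 100 nM, 2% DMSO), then 15 μM quenched FXI Arg146-based peptide added; Tris pH 7.5, CaCl2, BSA, CHAPS. Fluorescence 485/520 nm read kinetically every 5 min over 30 min at RT; IC50 by 4-parameter fit.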

[2] = molecular target: human plasma kallikrein (Homo sapiens (Human), UniProt P03952); test: Kallikrein inhibition assay (FLINT) utilizing a quenched AMC peptide substrate; type: biochemical; details: 30 min preincubation, kinetic reads over 30 min, Z-Gly-Pro-Arg-AMC substrate 50 μM; read-out: Kallikrein Kin Inh IC50
Chain of human plasma kallikrein (P03952 391-638): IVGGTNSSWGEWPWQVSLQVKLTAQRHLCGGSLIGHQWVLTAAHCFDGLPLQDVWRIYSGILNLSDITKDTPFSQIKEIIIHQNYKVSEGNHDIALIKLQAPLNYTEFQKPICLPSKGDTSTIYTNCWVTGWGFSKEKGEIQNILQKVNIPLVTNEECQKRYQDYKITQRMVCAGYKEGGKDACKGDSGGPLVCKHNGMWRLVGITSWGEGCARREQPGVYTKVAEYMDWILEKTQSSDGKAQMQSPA
Chain of human plasma kallikrein (P03952 20-390 partner): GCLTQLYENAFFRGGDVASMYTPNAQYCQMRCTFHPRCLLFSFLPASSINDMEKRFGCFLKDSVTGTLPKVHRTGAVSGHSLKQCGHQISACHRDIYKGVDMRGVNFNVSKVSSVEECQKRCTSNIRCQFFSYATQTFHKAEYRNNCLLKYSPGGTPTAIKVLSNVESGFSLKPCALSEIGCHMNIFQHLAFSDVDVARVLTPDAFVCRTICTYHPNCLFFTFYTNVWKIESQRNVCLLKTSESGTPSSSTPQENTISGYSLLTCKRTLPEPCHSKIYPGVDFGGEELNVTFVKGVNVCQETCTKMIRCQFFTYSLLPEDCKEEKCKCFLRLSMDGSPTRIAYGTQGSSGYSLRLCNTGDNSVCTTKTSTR
In short: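 Enzyme (2 nM final) pre-incubated 30 min at room temperature with compound (11-point, 3-fold, top 1 μM, 2% DMSO), then 50 μM Z-Gly-Pro-Arg-AMC added in Tris pH 7.5 buffer. Kinetic fluorescence 340/440 nm every 5 min over 30 min; IC50 from 4-parameter logistic fit.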

[3] = 5Fam-KLTRAETV-K5Tamra substrate 15 μM
[4] = 5Fam-[…]-K5Tamra substrate 15 μM

Structure (SMILES) | IC50 [1, 3] | IC50 [2] | IC50 [1, 4]
Nc1ccnn1-c1nccc(-c2c[nH]c([C@@H]3CC[C@@H]4CC(c5c(-n6cnnn6)ccc(Cl)c5F)=CC(=O)N43)n2)c1F [Example 68] | 30 nM | 58 nM | –
O=C1C=C(c2c(-n3cnnn3)ccc(Cl)c2F)CC2CC[C@@H](c3ncc(-c4ccc5[nH]c(=O)ncc5c4)[nH]3)N12 (stereo partly drawn) [Example 273, 6-(2-((3S)-7-(3-Chloro-2-fluoro-6-(1H-tetrazol-1-yl)phenyl)-5-oxo-1,2,3,5,8,8a-hexahydroindolizin-3-yl)-1H-imidazol-5-yl)quinazolin-2(1H)-one] | 0.5 nM | 2 nM | –
O=C1C=C(c2c(-n3cnnn3)ccc(Cl)c2F)C[C@@H]2CC[C@@H](c3ncc(-c4ccnc([C@H](O)C(F)(F)F)c4)[nH]3)N12 (relative stereo) [Example 174, (3S*,8aS*)-7-(3-chloro-2-fluoro-6-(1H-tetrazol-1-yl)phenyl)-3-(5-(2-((S*)-2,2,2-trifluoro-1-hydroxyethyl)pyridin-4-yl)-1H-imidazol-2-yl)-2,3,8,8a-tetrahydroindolizin-5(1H)-one] | – | 25.9 nM | 18.1 nM
O=C1C=C(c2c(-n3cnnn3)ccc(Cl)c2F)C[C@H]2CC[C@@H](c3ncc(-c4c[nH]c5ncncc45)[nH]3)N12 [Example 379, (3S,8aR)-3-(5-(7H-pyrrolo[2,3-d]pyrimidin-5-yl)-1H-imidazol-2-yl)-7-(3-chloro-2-fluoro-6-(1H-tetrazol-1-yl)phenyl)-2,3,8,8a-tetrahydroindolizin-5(1H)-one] | 0.6 nM | 2.2 nM | –
O=C1C=C(c2c(-n3cnnn3)ccc(Cl)c2F)C[C@H]2CC[C@@H](c3ncc(-c4c[nH]c(C(F)(F)F)n4)[nH]3)N12 [Example 231, (3S,8aR)-7-(3-Chloro-2-fluoro-6-(1H-tetrazol-1-yl)phenyl)-3-(2-(trifluoromethyl)-1H,3′H-[4,4′-biimidazol]-2′-yl)-2,3,8,8a-tetrahydroindolizin-5(1H)-one] | 37.1 nM | 84.6 nM | –
CC(=O)NCc1nccc(-c2cnc([C@@H]3CC[C@@H]4CC(c5c(-n6cnnn6)ccc(Cl)c5F)=CC(=O)N43)[nH]2)c1F [Example 13, N-[[4 [2-[(3S,8aR)-7-[3-Chloro-2-fluoro-6-(tetrazol-1-yl)phenyl]-5-oxo-2,3,8,8a-tetrahydro-1H-indolizin-3-yl]-1H-imidazol-5-yl]-3-fluoro-2-pyridyl]methyl]acetamide] | 4.2 nM | 68.6 nM | –

The remaining compounds from weak to strong by IC50 [2], led by results:

IC50 [1, 3] | IC50 [2] | IC50 [1, 4] | Structure (SMILES)
62.9 nM | 125 nM | – | O=C1CCCN1c1nccc(-c2cnc([C@@H]3CC[C@H]4CC(c5c(-n6cnnn6)ccc(Cl)c5F)=CC(=O)N43)[nH]2)c1F [Example 105, (3S,8aS)-7-(3-chloro-2-fluoro-6-(1H-tetrazol-1-yl)phenyl)-3-(5-(3-fluoro-2-(2-oxopyrrolidin-1-yl)pyridin-4-yl)-1H-imidazol-2-yl)-2,3,8,8a-tetrahydroindolizin-5(1H)-one]
4.7 nM | 21.1 nM | – | O=C1C=C(c2c(-n3cnnn3)ccc(Cl)c2F)C[C@H]2CC[C@@H](c3ncc(-c4ccc(CO)nc4F)[nH]3)N12 (single isomer, unassigned) [Example 235]
1.3 nM | 9.5 nM | – | O=C1C=C(c2c(-n3cnnn3)ccc(Cl)c2F)C[C@H]2CC[C@@H](c3ncc(-c4ccnc5c4CCO5)[nH]3)N12 [Example 386, (3S,8aR)-7-(3-chloro-2-fluoro-6-(1H-tetrazol-1-yl)phenyl)-3-(5-(2,3-dihydrofuro[2,3-b]pyridin-4-yl)-1H-imidazol-2-yl)-2,3,8,8a-tetrahydroindolizin-5(1H)-one]
– | 0.8 nM | 0.3 nM | O=C1CCc2cc(-c3cnc([C@@H]4CC[C@@H]5CC(c6c(-n7cnnn7)ccc(Cl)c6F)=CC(=O)N54)[nH]3)ccc2N1 (relative stereo) [Example 281, 6-(2-((3S,8aR)-7-(3-Chloro-2-fluoro-6-(1H-tetrazol-1-yl)phenyl)-5-oxo-1,2,3,5,8,8a-hexahydroindolizin-3-yl)-1H-imidazol-5-yl)-3,4-dihydroquinolin-2(1H)-one]
